Earlier results in patent US11957681B2, “Liquid dosage forms of Imatinib” (SHORLA PHARMA LTD., priority 2018, dated 2024).

What was measured:
[1] = compared with Imatinib mesylate

Share of the AUC for Imatinib mesylate (circulating metabolite): about 15%
Elimination half-life (imatinib mesylate orally administered): ~40 h
Compound: Cc1ccc(NC(=O)c2ccc(CN3CCNCC3)cc2)cc1Nc1nccc(-c2cccnc2)n1 [N-desmethyl derivative]
Potency in vitro [1]: potency similar to Imatinib mesylate
